Measured values from patent US20210155715A1, “USE OF TRYPTOPHAN DERIVATIVES AND L-METHIONINE FOR PROTEIN FORMULATION” (Genentech, Inc., priority 2018, published 2021).

Key:
[1] = target: T1, neurokinin-1 (NK-1) receptor (Homo sapiens, UniProt P25103); experiment: Binding to the NK-1 receptor in U373MG human astrocytoma cells; conditions: room temperature
T1 construct: U373MG human astrocytoma cells which endogenously express the receptor; endogenous in cells; host or cells: U373MG human astrocytoma cells
T1 sequence (P25103 whole entry): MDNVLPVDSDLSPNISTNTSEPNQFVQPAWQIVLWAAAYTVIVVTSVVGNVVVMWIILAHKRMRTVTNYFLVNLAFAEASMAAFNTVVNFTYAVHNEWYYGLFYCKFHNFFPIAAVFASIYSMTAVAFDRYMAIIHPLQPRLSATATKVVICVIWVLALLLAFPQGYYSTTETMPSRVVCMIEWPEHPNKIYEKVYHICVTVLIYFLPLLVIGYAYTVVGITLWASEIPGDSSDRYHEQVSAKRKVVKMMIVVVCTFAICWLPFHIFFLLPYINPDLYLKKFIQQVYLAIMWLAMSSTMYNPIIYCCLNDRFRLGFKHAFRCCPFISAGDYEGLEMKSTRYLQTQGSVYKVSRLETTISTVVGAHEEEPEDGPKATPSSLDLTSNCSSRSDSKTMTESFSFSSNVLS
Protocol: The activity of NAT was assessed in binding, cellular and nuclear receptor functional and tissue bioassays. Binding to the neurokinin-1 (NK-1) receptor was assessed in U373MG human astrocytoma cells which endogenously express the receptor (Eistetter et al. (1992) Functional characterization of Neurokinin-1 receptors on human U373MG astrocytoma cells. Glia 6(2):89-95; Heuillet et al. (1993) J. Neurochem 60(3):868-876), and compared to the reference agonist [Sar^9, Met(O2)^11]-SP or to the reference antagonist L 733,060. NAT or the reference compounds were incubated with U373MG cells at room temperature; all concentrations were assayed in duplicate.

[2] = AAPH chemical oxidation stress of mAb1/mAb2, LC-MS peptide mapping; assay type: physicochemical; conditions: 0.3 mM NAT
From the text: Antibodies were subjected to AAPH stress followed by peptide mapping to identify the CDR and Fc residues that were sensitive to oxidation (Dion et al., manuscript in preparation). […] If a residue oxidized by >5% relative to the control, it was deemed sensitive and monitored throughout the course of the experiments. […] In brief, samples were denatured, reduced, carboxylmethylated and subjected to trypsin digestion. Peptides were separated on an Acquity UPLC Peptide CSH C18 column using a water/acetonitrile/formic acid gradient on a Waters Acquity H-Class UHPLC coupled to a Thermo Q Exactive Plus high-resolution mass spectrometer. Data was processed using Thermo Scientific PepFinder™ and Xcalibur™ software. Integration was performed on extracted ion chromatograms of monoisotopic m/z using the most abundant charge state(s) for the native and oxidized peptides. The percent oxidation was calculated by dividing the peak area of the oxidized peptides by the summed peak area of the native and oxidized peptides. The major tryptophan degradation products (+16 and +32, in addition to +4, +20, and +48 for highly oxidized sites) were summed and used to calculate tryptophan oxidation. Only methionine sulfoxide (M+16) was used to calculate methionine oxidation, as methionine sulfone (M+32) was not observed under these conditions. […]

[3] = Light exposure stress (high intensity UV) of mAb1/mAb2, LC-MS peptide mapping; assay type: physicochemical; conditions: 5 mM L-Methionine
From the text: Antibodies were subjected to AAPH stress followed by peptide mapping to identify the CDR and Fc residues that were sensitive to oxidation (Dion et al., manuscript in preparation). Kabat numbering was used to identify variable fragment (Fv) residues, while EU nomenclature (Edelman et al. (1969) Proc Natl Acad Sci USA 63(1):78-85) was used to identify Fc residues. If a residue oxidized by >5% relative to the control, it was deemed sensitive and monitored throughout the course of the experiments. Peptide mapping and analysis information was as reported in Dion et al. (manuscript in preparation). In brief, samples were denatured, reduced, carboxylmethylated and subjected to trypsin digestion. […] The percent oxidation was calculated by dividing the peak area of the oxidized peptides by the summed peak area of the native and oxidized peptides. […]
Proteins (10 mg/mL) were exposed to light stress with a high intensity UV component (300 kilolux-hours visible light and 50 W·h/m^2 of near UV (320-400 nm) light over a 6-hour period) at various NAT concentrations (0-1 mM NAT) to determine the efficacy of NAT as an antioxidant against photo-oxidation (FIGS. 3A-B). […] Residues that were determined to be insensitive to light oxidation under antioxidant-free conditions remained insensitive to light when NAT was added to the formulation under the tested conditions.

SMILES | IC50 for agonist binding to the NK-1 receptor [1] | IC50 for antagonist binding to the NK-1 receptor [1] | oxidation of CDR and Fv tryptophan residues [2] [%] | impact on oxidation of CDR and Fv residues ([3]; alone or with 0.3 mM NAT, UV light) | UV light-induced Fc methionine oxidation ([3]; mAb1 and mAb2)
CC(=O)NC(Cc1c[nH]c2ccccc12)C(=O)O (racemic) [NAT, N-acetyl-DL-tryptophan] | could not be calculated | could not be calculated | < 10 | – | –
CSCC[C@H](N)C(=O)O [L-Methionine, L-methionine] | – | – | – | no beneficial impact | improved
